Measured values published in patent US10160744B2, “Quinoline compounds suitable for treating disorders that respond to the modulation of the serotonin 5-HT6 receptor” (Abbvie Deutschland GmbH & Co. KG, priority 2016, dated 2018).

Key:
h-5-HT6 receptor = target: T1, h-5-HT6 receptor (Homo sapiens, UniProt P50406); test: 5-HT6 receptor binding assay (displacement of [3H]-LSD); conditions: cloned human 5-HT6 receptor, HEK293 membranes, 1 nM [3H]-LSD
T1 construct: expressed in transfected cells
Protocol: Displacement of radioligands binding to the following cloned human receptors
1. Preparation of Membranes by Ultrasonic Treatment and Differential Centrifugation
Cells from stable clonal cell lines expressing the corresponding receptor (5-HT6, α1-adrenergic, dopamine D2 or histamine H1 receptors) were washed with PBS (w/o Ca^++, Mg^++) and harvested in PBS with 0.02% EDTA. The cells were collected by centrifugation at 500 g for 10 min. at 4° C., washed with PBS and centrifuged (500 g, 10 min. 4° C.). The pellets were stored at −80° C. until use. For membrane preparation, the thawed cell pellet was resuspended in ice-cold sucrose buffer (0.25 M sucrose, 10 mM Hepes (pH 7.4), 1 mM Phenylmethylsulfonyl fluoride (PMSF) in DMSO, 5 μg/ml Pepstatin-A, 3 mM EDTA, 0.025% Bacitracin) and homogenized with a Branson Sonifier W-250 (Settings: Timer 4; Output Control 3; Duty Cycle constant; 2 to 3 cycles). Cell disruption was checked with the aid of a microscope. Remaining unbroken cells were pelleted at 1.000 g for 10 min. at 4° C. The sucrose buffer supernatant was then centrifuged at 60.000 g for 1 h at 4° C. (Beckman Ultrazentrifuge XL 80). The pellet was resuspended in 30 ml ice-cold Tris buffer (20 mM TRIS (pH 7.4), 5 μg/ml Pepstatin A, 0.1 mM PMSF, 3 mM EDTA) by pipetting through a 10 ml serological pipet and centrifuged for 1 h at 4° C. at 60.000 g. A final resuspension was performed in a small volume of ice-cold Tris buffer (see above) by pressing through a serological pipet followed by ultrasonic treatment with a Branson Sonifier W-250 (Settings: Timer 1; Output Control 3; Duty Cycle constant; 1 cycle). Protein concentration was determined (BCA-Kit; Pierce) and aliquots stored at −80° C. or in liquid nitrogen for long-term storage.
2. Receptor Binding Experiments
All receptor binding experiments were carried out in the corresponding assay buffer in a total volume of 200 μl in the presence of various concentrations of test compound (10^−5 M to 10^−9 M, tenfold serial dilution, duplicate determinations). The assays were terminated by filtration on polyethylenimine (PEI 0.1% or 0.3%) presoaked Packard Unifilter Plates (GF/C or GF/B) with a Tomtec MachIII U 96 well-plate harvester. After the plates had been dried for 2 h at 55° C. in a drying chamber scintillation cocktail (BetaPlate Scint; PerkinElmer) was added. Radioactivity was measured in a Microbeta Trilux two hours after the addition of the scintillation mixture. Data derived from liquid scintillation counting were analysed by iterative non-linear regression analysis with the use of the Statistical Analysis System (SAS): a program similar to “LIGAND” as described by Munson and Rodbard (Analytical Biochemistry 107, 220-239 (1980).
a) 5-HT6 Receptor Binding Assay
HEK293 cells stably expressing the h-5-HT6 receptor (NCBI Reference Sequence XM 001435) were cultured in RPMI1640 medium supplemented with 25 mM HEPES, 10% fetal calf serum and 1-2 mM glutamine. The membrane preparation was performed as described in section 1. […] Non-specific binding was defined with 1 μM methiothepin. The binding reaction was carried out for 3.5 h at room temperature. During the incubation, the plates were shaken on a plate shaker at 100 rpm and terminated by filtration on Packard Unifilter GF/C (0.1% PEI) plates, followed by 2 wash cycles with ice-cold 50 mM Tris-HCl, 5 mM CaCl2.
Data derived from liquid scintillation counting were analyzed by iterative non-linear regression analysis with the use of the Statistical Analysis System (SAS): a program similar to “LIGAND” as described by Munson and Rodbard (Anal. Biochem. 1980, 107, 220-239). Fitting was performed according to formulae described by Feldman (Anal. Biochem. 1972, 48, 317-338). IC50, nH and Ki values were expressed as geometrical mean.

[1] = Metabolic stability in human liver microsomes (microsomal clearance); type: in vitro ADME; conditions: pH 7.4; human liver microsomes 0.25 mg protein/mL, 0.5 μM compound, NADPH, 37° C.; read-out: mClint
Protocol: Samples of the tested compounds (0.5 μM) were preincubated together with human liver microsomes (0.25 mg of microsomal protein/mL) in 0.05 M potassium phosphate buffer of pH 7.4 in microtiter plates at 37° C. for 5 minutes. The reaction was started by adding NADPH (1.0 mM). After 0, 5, 10, 15, 20 and 30 minutes, an aliquot was removed, the reaction was cooled and stopped by adding twice the amount of quench solution consisting of acetonitrile/methanol 1:1, and containing 0.2 μM carbutamide as internal standard. The samples were frozen until analyzed. The remaining concentration of undegraded test substance was determined by liquid chromatography-tandem mass spectrometry (LC-MS/MS). The half-life (t1/2) was determined from the gradient of the ratio of the signal of (test substance/internal standard)/unit time plot, allowing the calculation of the half-life of the test substance, assuming first order kinetics, from the decrease in the concentration of the compound with time. The microsomal clearance (mClint) was calculated as follows: mClint=((ln(2)/t 1/2)/Microsomal Protein Concentration (mg/ml))*1000, leading to the unit of μL/min/mg.

T1 sequence (P50406 whole entry): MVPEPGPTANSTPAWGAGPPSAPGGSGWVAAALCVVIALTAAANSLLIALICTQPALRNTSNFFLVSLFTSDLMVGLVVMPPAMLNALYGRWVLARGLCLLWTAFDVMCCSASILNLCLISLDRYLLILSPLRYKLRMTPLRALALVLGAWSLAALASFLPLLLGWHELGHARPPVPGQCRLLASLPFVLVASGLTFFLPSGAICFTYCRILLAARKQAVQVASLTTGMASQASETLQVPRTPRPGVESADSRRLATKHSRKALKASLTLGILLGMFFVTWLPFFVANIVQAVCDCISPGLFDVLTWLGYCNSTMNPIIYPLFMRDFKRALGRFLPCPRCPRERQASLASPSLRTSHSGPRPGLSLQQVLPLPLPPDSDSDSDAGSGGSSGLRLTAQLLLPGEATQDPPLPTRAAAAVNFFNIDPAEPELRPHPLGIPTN

SMILES | Ki (h-5-HT6 receptor) [µM] | microsomal CLint at 0.5 μM [1] [µL/min/mg]
O=S(=O)(c1cccc(C(F)(F)F)c1)c1cnc2c(N3CC(O)C3)cccc2c1 [Example 8, 1-[3-[3-(Trifluoromethyl)phenyl]sulfonyl-8-quinolyl]azetidin-3-ol] | < 0.01 | 30 to 60
O=S(=O)(c1cccc(F)c1)c1cnc2c(N3CC(O)C3)cccc2c1 [Example 10, 1-[3-(3-Fluorophenyl)sulfonyl-8-quinolyl]azetidin-3-ol] | < 0.01 | 30 to 60
O=S(=O)(c1cccc(C(F)(F)F)c1)c1cnc2c(N3CC[C@@H](O)C3)cccc2c1 [Example 19, (3R)-1-[3-[3-(Trifluoromethyl)phenyl]sulfonyl-8-quinolyl]pyrrolidin-3-ol] | 0.01 to 0.1 | 30 to 60
O=S(=O)(c1cccc(F)c1)c1cnc2c(N3CCC[C@@H](O)C3)cccc2c1 [Example 20, (3R)-1-[3-(3-Fluorophenyl)sulfonyl-8-quinolyl]piperidin-3-ol] | < 0.01 | 30 to 60
O=S(=O)(c1ccccc1)c1cnc2c(N3CCC[C@H](O)C3)cccc2c1 [Example 22, (3S)-1-[3-(Benzenesulfonyl)-8-quinolyl]piperidin-3-ol] | 0.01 to 0.1 | 30 to 60
O=S(=O)(c1ccccc1)c1cnc2c(N3CCC[C@@H](O)C3)cccc2c1 [Example 23, (3R)-1-[3-(Benzenesulfonyl)-8-quinolyl]piperidin-3-ol] | < 0.01 | 30 to 60
O=S(=O)(c1cccc(N2CCC(O)CC2)c1)c1cnc2c(F)cccc2c1 [Example 24, 1-[3-[(8-Fluoro-3-quinolyl)sulfonyl]phenyl]piperidin-4-ol] | 0.01 to 0.1 | 60 to 120
O=S(=O)(c1cccc(F)c1)c1cnc2c(N3CCC[C@H](O)C3)cccc2c1 [Example 27, (3S)-1-[3-(3-Fluorophenyl)sulfonyl-8-quinolyl]piperidin-3-ol] | < 0.01 | 30 to 60
Cc1ccc(O)c(S(=O)(=O)c2cnc3c(N4CCC(O)CC4)cccc3c2)c1 [Example 28, 1-[3-(2-Hydroxy-5-methyl-phenyl)sulfonyl-8-quinolyl]piperidin-4-ol] | 0.01 to 0.1 | 30 to 60
O=S(=O)(c1ccccc1)c1cnc2c(N3CC[C@H](O)C3)cccc2c1 [Example 30, (3S)-1-[3-(Benzenesulfonyl)-8-quinolyl]pyrrolidin-3-ol] | < 0.01 | 60 to 120
O=S(=O)(c1ccccc1)c1cnc2c(N3C[C@H](O)[C@@H](O)C3)cccc2c1 [Example 32, (3S,4S)-1-[3-(Benzenesulfonyl)-8-quinolyl]pyrrolidine-3,4-diol] | < 0.01 | 30 to 60
O=S(=O)(c1ccccc1)c1cnc2c(N3C[C@H](O)C[C@H](O)C3)cccc2c1 [Example 36, (3R,5S)-1-[3-(Benzenesulfonyl)-8-quinolyl]piperidine-3,5-diol] | < 0.01 | < 30
COc1ccccc1S(=O)(=O)c1cnc2c(N3CC(O)C3)cccc2c1 [Example 39, 1-[3-(2-Methoxyphenyl)sulfonyl-8-quinolyl]azetidin-3-ol] | 0.01 to 0.1 | 60 to 120
O=S(=O)(c1ccccc1)c1cnc2c(N3CC[C@@H](O)[C@@H](O)C3)cccc2c1 [Example 41, (3S,4R)-1-[3-(Benzenesulfonyl)-8-quinolyl]piperidine-3,4-diol] | < 0.01 | < 30
O=S(=O)(c1ccccc1)c1cnc2c(N3C[C@@H](O)[C@@H](O)C3)cccc2c1 [Example 42, (3R,4S)-1-[3-(Benzenesulfonyl)-8-quinolyl]pyrrolidine-3,4-diol] | < 0.01 | < 30

Second part, the compound after the results:

Ki (h-5-HT6 receptor) [µM] | microsomal CLint at 0.5 μM [1] [µL/min/mg] | SMILES
< 0.01 | < 30 | O=S(=O)(c1cccc(F)c1)c1cnc2c(N3CCC(O)CC3)cccc2c1 [Example 9, 1-[3-(3-Fluorophenyl)sulfonyl-8-quinolyl]piperidin-4-ol]
0.01 to 0.1 | < 30 | O=C(O)[C@@H]1CCN(c2cccc3cc(S(=O)(=O)c4cccc(C(F)(F)F)c4)cnc23)C1 [Example 12, (3R)-1-[3-[3-(Trifluoromethyl)phenyl]sulfonyl-8-quinolyl]pyrrolidine-3-carboxylic Acid]
< 0.01 | 60 to 120 | COc1cccc(S(=O)(=O)c2cnc3c(N4CCC(O)CC4)cccc3c2)c1 [Example 13, 1-[3-(3-Methoxyphenyl)sulfonyl-8-quinolyl]piperidin-4-ol]
0.1 to 0.5 | < 30 | COc1cccc(S(=O)(=O)c2cnc3c(N4CCC(C(=O)O)CC4)cccc3c2)c1 [Example 15, 1-[3-(3-Methoxyphenyl)sulfonyl-8-quinolyl]piperidine-4-carboxylic Acid]
0.01 to 0.1 | 30 to 60 | O=S(=O)(c1cccc(N2CCC(O)CC2)c1)c1cnc2c(N3CCC(O)CC3)cccc2c1 [Example 16, 1-[3-[[8-(4-Hydroxy-1-piperidyl)-3-quinolyl]sulfonyl]phenyl]piperidin-4-ol]
< 0.01 | < 30 | O=S(=O)(c1ccccc1)c1cnc2c(N3CCC(O)CC3)cccc2c1 [Example 18, 1-[3-(Benzenesulfonyl)-8-quinolyl]piperidin-4-ol]
0.01 to 0.1 | 60 to 120 | COc1ccccc1S(=O)(=O)c1cnc2c(N3CCC(O)CC3)cccc2c1 [Example 21, 1-[3-(2-Methoxyphenyl)sulfonyl-8-quinolyl]piperidin-4-ol]
< 0.01 | < 30 | O=S(=O)(c1cccc(OC(F)F)c1)c1cnc2c(N3CCC(O)CC3)cccc2c1 [Example 29, 1-[3-[3-(Difluoromethoxy)phenyl]sulfonyl-8-quinolyl]piperidin-4-ol]
0.01 to 0.1 | < 30 | O=C(O)C1CCN(c2cccc3cc(S(=O)(=O)c4cccc(OC(F)F)c4)cnc23)CC1 [Example 31, 1-[3-[3-(Difluoromethoxy)phenyl]sulfonyl-8-quinolyl]piperidine-4-carboxylic Acid]
< 0.01 | 30 to 60 | O=S(=O)(c1cccc(F)c1)c1cnc2c(N3CC[C@@H](O)C3)cccc2c1 [Example 33, (3R)-1-[3-(3-Fluorophenyl)sulfonyl-8-quinolyl]pyrrolidin-3-ol]
0.01 to 0.1 | < 30 | O=C(O)C1CCN(c2cccc3cc(S(=O)(=O)c4ccccc4)cnc23)CC1 [Example 37, 1-[3-(Benzenesulfonyl)-8-quinolyl]piperidine-4-carboxylic Acid]
